Reference: patent US20150150892A1, “METHODS AND PRODUCTS RELATED TO LUNG CANCER” (Massachusetts Institute of Technology, priority 2012, published 2015)

Columns and labels:
[1] = test system: KrasLSL-G12D/wt;p53flox/flox (KP) lung tumors; assay: MicroCT lung tumor volume in KP mice; type: in vivo, mouse
From the text: (§1) FIG. 3: Bortezomib induces acute lung tumor regression in KrasLSL-G12D/wt;p53flox/flox (KP) mice, but not in KrasLSL-G12D/wt (K) mice. (3A and 3C) representative microCT images (n=6) of KP (3A) and K (3C) lung tumors prior to pre-treatment (D0) and 4 days (D4) after a single dose of vehicle control or bortezomib. (3 B and 3D) Quantification of tumor volume change (D4 compared with D0) in control- and bortezomib-treated mice. Each bar represents an individual tumor. P<10^−6 in KP mice (3B); P>0.05 in K mice (3D).
FIG. 5: Bortezomib increases survival in KP mice. (5A and 5B) Kaplan-Meier survival curve of vehicle control and bortezomib-treated KP (5A) and K (5B) mice. Arrows indicate weekly 1 mg/kg bortezomib regimen. (5C) quantification of lung tumor volume of control- and bortezomib-treated KP mice. From 10 weeks after Adeno-Cre infection, lungs were imaged by microCT to measure individual tumor volumes (n=4). Data points represent means of fold change and SD relative to 10 weeks (set to 1). Arrows indicate bortezomib injection. D, CC3 staining (×200) in lung tumors receiving 3 doses of control (“C”) and 1 final dose of bortezomib (“B,” left) or 4 doses of bortezomib (right). Tumors were harvested 48 hours after the last treatment (n=4).
The Massachusetts Institute of Technology (Cambridge, Mass.) Institutional Animal Care and Use Committee approved all animal studies and procedures. […]
(§2) At indicated time points, mice were scanned for 15 min under isoflurane anesthesia, using a small animal eXplore Locus microCT (GE Healthcare) at 45-μm resolution, 80 kV, with 450-mA current (47). […] Mice were imaged for 60 seconds, and signals in the lung were quantified using Xenogen software.
To understand the relevance of these findings in vivo, we examined bortezomib-mediated NF-κB inhibition in both KP and K models of lung cancer. […] Individual lung tumors were monitored using micro-computed tomography (microCT) imaging prior to treatment (D0) and 4 days post treatment (D4). […]

[2] = test system: KrasLSL-G12D/wt (K) lung tumors; assay: MicroCT lung tumor volume in K mice; type: in vivo, mouse; details: single 1 mg/kg dose, 20 weeks post infection
From the text: as §1
The Massachusetts Institute of Technology (Cambridge, Mass.) Institutional Animal Care and Use Committee approved all animal studies and procedures. To initiate lung tumors, cohorts of K or KP mice of 129svJae background were infected with 2.5×10^7 plaque-forming units of Adeno-Cre (University of Iowa) by intranasal inhalation, as described previously (2, 28). Mice were given bortezomib (LC Labs) in PBS [0.5% dimethylsulfoxide (DMSO)] at 1 mg/kg body weight i.v., as indicated. […]
as §2, with “software. […]” for “software.”

K lung tumors = assay: CC3 immunohistochemistry in K lung tumors; type: in vivo, mouse; details: KrasLSL-G12D/wt mice, all time points assayed
Description: FIG. 4: Bortezomib induces apoptosis in KP lung tumors. (4A and 4B) H&E and CC3 immunohistochemistry staining (×200) in vehicle control- and bortezomib-treated KP (4A) and K (4B) lung tumors. (4C and 4D) quantification of CC3-positive cells in bortezomib-treated KP (4C) and K (4D) lung tumors at indicated time points. “0 hour” represents vehicle control-treated tumors. Error bars are SD (n>10 for each time point).
Mice were sacrificed by carbon dioxide asphyxiation. Lungs were inflated with 4% formalin (neutral buffered formalin), fixed overnight, and transferred to 70% ethanol. Lung lobes were embedded in paraffin and sectioned at 4 μm and stained with H&E for tumor pathologic study. For staining with anti-CC3 antibodies (#9661; Cell Signaling), lung tumor sections were dewaxed, rehydrated, and subjected to high-temperature antigen retrieval—10 minutes of boiling in a pressure cooker in 0.01 M citrate buffer, pH 6.0. Slides were stained overnight at 4° in 1:100 primary antibody. A goat anti-rabbit horseradish peroxidase-conjugated secondary antibody (Vector Laboratories) was used at 1:200 dilution, incubated for 1 hour at room temperature, followed by diaminobenzidine staining (Vector Laboratories). The number of positive cells per tumor area was quantified using Bioquant software from >10 tumors in ≧3 mice per group (2).

[3] = test system: Kras^G120;p53^fl/fl (high NF-κB) mice; assay: FIG. 19 study, mice with high NF-κB; type: in vivo, mouse; details: 1 kg/mg IV bortezomib
Description: FIG. 19 is a schetaic diagram showing the experimental conditions and a set of graphs showing the results. Two sets of mice were treated with […] IV bortezomib, Kras^G120;p53^fl/fl (high NF-κB, top panel) or KrasL^St-G12Dwt (low NF-κB, bottom panel). […] The relapsed tumors have high Hmcgs2.
Mice having either high or low levels of NF-κB were treated with […] IV bortezomib and examined for tumor progression, apoptosis and survival. The mice are Kras^G120;p53^fl/fl (high NF-κB) or KrasL^St-G12Dwt (low NF-κB). […] The relapsed tumors have high Hmcgs2.

[4] = test system: Bortezomib-resistant KP cell lines; details: upon bortezomib treatment; viability 24 hours, colonies 7 days
Description: (12A) Relative cell viability in cell lines treated with increasing doses of Bortezomib for 24 hours. Cells lines were outgrown from Bortezomib resistant orthotopic tumors (resistant 1&2) or sensitive tumors (sensitive) as in FIG. 6C. Error bars are s.d. (n=3). (12B) Colony formation assay in Bortezomib-resistant cells. 104 cells were plated in 6-well plate and treated with indicated drug concentration. Plates were stained 7 days later with crystal violet solution. Drug-containing medium was refreshed every 4 days.
Cells were split into 96-well plates (5,000 cells per well). After 24 hours, cells were treated with bortezomib, and 24 hours later cell viability was measured by the Cell Titer Aqueous Kit (Promega) in triplicates. Vehicle control-treated cell values were set to 1 (100% viability).

[5] = test system: advanced NSCLC patients previously treated with chemotherapy; details: cited from earlier work
[6] = test system: CDK inhibitors p21 and p27; details: cited from earlier work

Compound: CC(C)C[C@H](NC(=O)[C@H](Cc1ccccc1)NC(=O)c1cnccn1)B(O)O [bortezomib, N-(2-pyrazine) carbonyl-L-phenylalanine-L-leucine boronic acid]
- tumor response by the 4th dose ([1]; once a week for 4 weeks, 13 weeks): insensitive to treatment
- tumor response after the first dose ([1]; once a week for 4 weeks, twice-weekly microCT, 10.5 weeks): rapid KP tumor regression
- average decrease in tumor volume at D4 compared with D0 ([1]; single dose 1 mg/kg i.v., 10 weeks after Adeno-Cre infection, microCT): 55.4%
- tumor regression [2]: did not regress
- apoptotic cells in K-only tumors (K lung tumors): did not detect a substantial number of apoptotic cells
- tumor response, apoptosis and survival (FIG. 19) [3]: rapid tumor progression, apoptosis, and increased survival
- viability and colony formation of resistant cells compared with sensitive cells [4]: higher viability and increased colony formation
- effects in Phase II clinical trials [5]: modest effects
- effect on CDK inhibitors p21 and p27 [6]: stabilize
